Measurements reported in US12054498B2, “Heteroaromatic macrocyclic ether chemotherapeutic agents” (Nuvalent, Inc., priority 2020, dated 2024).

What was measured:
[1] = target: T1, Ba/F3 cells CD74-ROS1 wild-type (wt) (Homo sapiens, UniProt P08922); test: Ba/F3 cell proliferation assay, CD74-ROS1 wild-type; type: cell-based; details: 72 hours, CellTiter-Glo
T1 construct: fusion of the C-terminus of ROS1 with the N-terminus of various partner proteins; host or cells: Ba/F3 (RIKEN), retroviral pMSCV-puro; the other entry of the earlier key: CD74 (P04233, HLA class II histocompatibility antigen gamma chain)
T1 sequence (P08922 1883-2347 limits assumed): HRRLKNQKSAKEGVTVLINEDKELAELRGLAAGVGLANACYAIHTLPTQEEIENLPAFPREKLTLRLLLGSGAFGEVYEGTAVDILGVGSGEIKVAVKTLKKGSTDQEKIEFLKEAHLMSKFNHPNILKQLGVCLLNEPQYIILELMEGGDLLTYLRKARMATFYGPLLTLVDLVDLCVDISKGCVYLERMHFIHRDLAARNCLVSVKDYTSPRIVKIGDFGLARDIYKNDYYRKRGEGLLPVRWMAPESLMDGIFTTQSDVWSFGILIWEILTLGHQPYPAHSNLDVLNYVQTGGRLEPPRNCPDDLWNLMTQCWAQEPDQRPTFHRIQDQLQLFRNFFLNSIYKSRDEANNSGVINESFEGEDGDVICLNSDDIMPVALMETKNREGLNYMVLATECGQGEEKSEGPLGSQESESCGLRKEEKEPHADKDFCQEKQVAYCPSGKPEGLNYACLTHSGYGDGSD
Outline: (§1)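 IL-3-independent Ba/F3 CD74-ROS1 lines, puromycin-selected monoclones; 1,000 cells/well, plated 1 d before dosing; 3-fold serial dilutions, 72 h; CellTiter-Glo luminescence; IC50 by 4-parameter logistic regression.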

ROS1-G2032R = target: T2, ROS1-G2032R (Homo sapiens, UniProt P08922, G2032R); test: Biochemical kinase assay, ROS1-G2032R kinase domain; details: apparent inhibitory constant, Morrison equation; ATP 2 mM in substrate solution; read-out: ROS1-G2032R Ki^app
T2 construct: purchased SignalChem R14-12BG
T2 sequence (P08922 1945-2222 G2032R limits assumed): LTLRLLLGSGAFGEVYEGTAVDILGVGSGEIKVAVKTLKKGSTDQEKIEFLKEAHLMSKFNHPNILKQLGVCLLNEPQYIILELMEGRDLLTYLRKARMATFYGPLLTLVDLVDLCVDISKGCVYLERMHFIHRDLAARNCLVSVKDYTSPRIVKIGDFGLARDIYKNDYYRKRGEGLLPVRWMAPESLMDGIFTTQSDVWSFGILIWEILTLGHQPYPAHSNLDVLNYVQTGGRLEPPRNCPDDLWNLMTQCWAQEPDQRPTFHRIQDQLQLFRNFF
Outline: (§2)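 Kinetic read: 485 nm, 2-min intervals, 120 min, 30 °C. Substrate mix — ATP 2 mM, AQT0101 26 μM, HEPES 50 mM pH 7.5, MgCl2 10 mM. Output: Ki^app, Morrison equation.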

[2] = target: T3, Ba/F3 cells CD74-ROS1 G2032R (Homo sapiens, UniProt P08922, G2032R); test: Ba/F3 cell proliferation assay, CD74-ROS1 G2032R; type: cell-based; details: 72 hours, CellTiter-Glo
T3 construct: fusion of the C-terminus of ROS1 with the N-terminus of various partner proteins; host or cells: Ba/F3 (RIKEN), retroviral pMSCV-puro; the other entry of the earlier key: CD74 (P04233, HLA class II histocompatibility antigen gamma chain)
T3 sequence (P08922 1883-2347 G2032R limits assumed): as the sequence (P08922 1883-2347 limits assumed) above, with G150R counted along it
Outline: as §1

TRKA-wt = target: T4, TRKA-wt (Homo sapiens, UniProt P04629); test: Biochemical kinase assay, TRKA-wt kinase domain; details: apparent inhibitory constant, Morrison equation; ATP 2 mM in substrate solution; read-out: TRKA-wt Ki^app
T4 construct: or TRKA-wt (1 nM, BPS Bio, 40280) kinase domains in buffer; purchased BPS Bio 40280
T4 sequence (P04629 510-781 limits assumed): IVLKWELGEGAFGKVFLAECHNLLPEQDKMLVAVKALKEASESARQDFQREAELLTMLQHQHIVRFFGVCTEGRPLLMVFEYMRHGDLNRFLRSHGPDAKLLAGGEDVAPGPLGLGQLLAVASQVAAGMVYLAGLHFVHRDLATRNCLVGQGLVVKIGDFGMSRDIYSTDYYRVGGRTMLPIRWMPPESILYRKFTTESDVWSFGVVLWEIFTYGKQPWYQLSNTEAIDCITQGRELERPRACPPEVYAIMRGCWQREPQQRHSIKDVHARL
Outline: (§3)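 Continuous fluorescence read (λ=485 nm, every 2 min, 120 min, 30° C). Substrate solution held 2 mM ATP and 26 μM AQT0101 (ROS1/ALK) or AQT0104 (TRKA). Kinase solution: ROS1-G2032R 0.5 nM, ROS1-wt 0.6 nM, TRKA 1 nM, ALK double mutant 3 nM. Initial linear rates fed a Morrison-equation fit giving Ki^app.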

ROS1-wt = target: T5, ROS1-wt (Homo sapiens, UniProt P08922); test: Biochemical kinase assay, ROS1-wt kinase domain; details: apparent inhibitory constant, Morrison equation; ATP 2 mM in substrate solution; read-out: ROS1-wt Ki^app
T5 construct: purchased Carna 08-163
T5 sequence (P08922 1945-2222 limits assumed): as the sequence (P08922 1945-2222 G2032R limits assumed) above, with R88G counted along it
Outline: as §2

ALK-wt = target: T6, ALK-wt (Homo sapiens, UniProt Q9UM73); test: Biochemical kinase assay, ALK-wt kinase domain; details: apparent inhibitory constant, Morrison equation; ATP 2 mM in substrate solution; read-out: ALK-wt Ki^app
T6 construct: purchased Carna 08-518
T6 sequence (Q9UM73 1116-1392 limits assumed): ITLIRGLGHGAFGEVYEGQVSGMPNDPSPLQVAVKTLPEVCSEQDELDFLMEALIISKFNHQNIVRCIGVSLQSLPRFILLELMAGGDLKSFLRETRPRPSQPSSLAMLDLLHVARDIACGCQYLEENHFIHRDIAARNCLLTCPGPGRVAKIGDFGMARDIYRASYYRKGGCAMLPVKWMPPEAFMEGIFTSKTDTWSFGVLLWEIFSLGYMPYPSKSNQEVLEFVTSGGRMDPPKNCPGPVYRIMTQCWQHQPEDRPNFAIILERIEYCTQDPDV
Outline: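 Compound in DMSO added first, then substrate solution (ATP 2 mM; AQT0101 or AQT0104, 26 μM; pH 7.5 HEPES, 10 mM MgCl2), then kinase solution with enzyme at 0.5–3 nM depending on construct. Kinetic read every 2 min for 120 min at 30° C; Ki^app by Morrison regression.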

[3] = target: T7, Ba/F3 cells EML4-ALK L1196M/G1202R (variant 1) (Homo sapiens, UniProt Q9UM73, G1202R/L1196M); test: Ba/F3 cell proliferation assay, EML4-ALK L1196M/G1202R (variant 1); type: cell-based; details: 72 hours, CellTiter-Glo
T7 construct: echinoderm microtubule-associated protein-like 4 (EML4) gene and the ALK tyrosine kinase domain; host or cells: Ba/F3 (RIKEN), retroviral pMSCV-puro; the other entry of the earlier key: EML4 (Q9HC35, Echinoderm microtubule-associated protein-like 4)
T7 sequence (Q9UM73 with tags, fused parts or gaps L1196M/G1202R): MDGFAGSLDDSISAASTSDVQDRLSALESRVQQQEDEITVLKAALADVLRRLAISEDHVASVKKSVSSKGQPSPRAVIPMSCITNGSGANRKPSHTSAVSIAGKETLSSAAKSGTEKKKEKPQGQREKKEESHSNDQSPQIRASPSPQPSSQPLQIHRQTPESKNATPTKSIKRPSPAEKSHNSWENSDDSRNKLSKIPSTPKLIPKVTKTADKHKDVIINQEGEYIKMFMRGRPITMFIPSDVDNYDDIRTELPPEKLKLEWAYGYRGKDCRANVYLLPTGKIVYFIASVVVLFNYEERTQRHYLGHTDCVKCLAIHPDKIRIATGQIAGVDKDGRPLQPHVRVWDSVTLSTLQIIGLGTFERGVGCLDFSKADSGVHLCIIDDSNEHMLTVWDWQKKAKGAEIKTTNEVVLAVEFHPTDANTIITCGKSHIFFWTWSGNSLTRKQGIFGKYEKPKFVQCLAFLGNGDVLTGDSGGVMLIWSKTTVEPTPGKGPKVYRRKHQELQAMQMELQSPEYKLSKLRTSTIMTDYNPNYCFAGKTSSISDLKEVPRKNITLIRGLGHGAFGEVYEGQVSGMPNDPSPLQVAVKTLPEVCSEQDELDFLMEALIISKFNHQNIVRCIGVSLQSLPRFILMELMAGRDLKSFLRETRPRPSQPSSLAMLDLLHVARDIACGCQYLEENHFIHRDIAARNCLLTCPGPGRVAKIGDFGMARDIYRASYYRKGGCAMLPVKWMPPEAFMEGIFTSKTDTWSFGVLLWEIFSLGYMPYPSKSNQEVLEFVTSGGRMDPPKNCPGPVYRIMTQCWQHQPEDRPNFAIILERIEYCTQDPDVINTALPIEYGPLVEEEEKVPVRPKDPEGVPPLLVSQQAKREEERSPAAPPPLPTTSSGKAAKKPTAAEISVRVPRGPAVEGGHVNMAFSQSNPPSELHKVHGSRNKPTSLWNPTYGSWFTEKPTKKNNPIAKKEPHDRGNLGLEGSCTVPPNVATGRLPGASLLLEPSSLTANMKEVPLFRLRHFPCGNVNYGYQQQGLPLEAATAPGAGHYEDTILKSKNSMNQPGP
Outline: (§4)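 First, Ba/F3 cells were made IL-3-independent via retroviral fusion expression and puromycin selection, then cloned by single-cell dilution. Next, 1,000 cells/well were plated for a day, exposed to 3-fold diluted compounds for 72 hours, and lysed with CellTiter-Glo. Finally, IC50 was fitted by four-parameter logistic regression.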

[4] = target: T8, Ba/F3 cells EML4-ALK wt (variant 1) (Homo sapiens, UniProt Q9UM73); test: Ba/F3 cell proliferation assay, EML4-ALK wt (variant 1); type: cell-based; details: 72 hours, CellTiter-Glo
T8 construct: echinoderm microtubule-associated protein-like 4 (EML4) gene and the ALK tyrosine kinase domain; host or cells: Ba/F3 (RIKEN), retroviral pMSCV-puro; the other entry of the earlier key: EML4 (Q9HC35, Echinoderm microtubule-associated protein-like 4)
T8 sequence (Q9UM73 with tags, fused parts or gaps): as the sequence (Q9UM73 with tags, fused parts or gaps L1196M/G1202R) above, with M635L, R641G counted along it
Outline: as §4

ALK L1196M/G1202R = target: T9, ALK L1196M/G1202R (Homo sapiens, UniProt Q9UM73, G1202R/L1196M); test: Biochemical kinase assay, ALK L1196M/G1202R kinase domain; details: apparent inhibitory constant, Morrison equation; ATP 2 mM in substrate solution; read-out: ALK-L1196M-G1202R Ki^app
T9 construct: purchased SignalChem A19-12NG
T9 sequence (Q9UM73 1116-1392 L1196M/G1202R limits assumed): as the sequence (Q9UM73 1116-1392 limits assumed) above, with L81M, G87R counted along it
Outline: as §3

[5] = tested on: TPM3-NTRK1-wt IC50 / primary target IC50 (e.g. CD74-ROS1-wt); test: TRKA selectivity in Ba/F3 cells (TRKA potency divided by primary target potency); type: cell-based; details: for TPM3-NTRK1-wt/CD74-ROS1-G2032R selectivity ratio: TRKA potency / CD74-ROS1-G2032R potency; for TPM3-NTRK1-wt/CD74-ROS1-wt selectivity ratio: TRKA potency / CD74-ROS1-wt potency; for TPM3-NTRK1-wt/EML4-ALK-L1196M-G1202R selectivity ratio: TRKA potency / EML4-ALK-L1196M-G1202R potency; for TPM3-NTRK1-wt/EML4-ALK-wt selectivity ratio: TRKA potency / EML4-ALK-wt potency
Protocol: TRKA selectivity was calculated by dividing a compound's TRKA potency by its primary target potency (e.g. TPM3-NTRK1-wt IC50/CD74-ROS1-wt IC50). Compound selectivity can be interpreted by binning ratio values: bin A for very high selectivity, ratio >30-fold; bin B for high selectivity, ratio >10-fold; bin C for moderate selectivity, ratio ≥1; and bin D for low selectivity, ratio <1. […] (nd=not determined).

Ba/F3 cells TPM3-TRKA = target: T10, Ba/F3 cells TPM3-TRKA (Homo sapiens, UniProt P04629); test: Ba/F3 cell proliferation assay, TPM3-TRKA; type: cell-based; details: 72 hours, CellTiter-Glo, read-out: TPM3-NTRK1-wt IC50
T10 construct: host or cells: Ba/F3 (RIKEN), retroviral pMSCV-puro; the other entry of the earlier key: TPM3 (P06753, Tropomyosin alpha-3 chain)
T10 sequence (P04629 510-796 limits assumed): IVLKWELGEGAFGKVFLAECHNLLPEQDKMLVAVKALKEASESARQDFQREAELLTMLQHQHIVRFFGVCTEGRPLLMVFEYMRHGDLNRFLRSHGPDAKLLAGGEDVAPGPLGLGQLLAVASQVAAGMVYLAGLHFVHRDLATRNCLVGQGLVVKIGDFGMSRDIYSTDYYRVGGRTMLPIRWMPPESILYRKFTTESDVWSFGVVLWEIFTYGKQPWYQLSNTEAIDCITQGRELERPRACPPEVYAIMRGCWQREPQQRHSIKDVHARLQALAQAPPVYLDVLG
Outline: as §4

Row | SMILES | IC50 [1] [nM] | Ki (ROS1-G2032R) [nM] | IC50 [2] [nM] | Ki (TRKA-wt) [nM] | Ki (ROS1-wt) [nM] | Ki (ALK-wt) [nM] | IC50 [3] [nM] | IC50 [4] [nM] | Ki (ALK L1196M/G1202R) [nM] | TPM3-NTRK1-wt/CD74-ROS1-G2032R selectivity ratio [5] | TPM3-NTRK1-wt/CD74-ROS1-wt selectivity ratio [5] | TPM3-NTRK1-wt/EML4-ALK-L1196M-G1202R selectivity ratio [5] | TPM3-NTRK1-wt/EML4-ALK-wt selectivity ratio [5] | IC50 (Ba/F3 cells TPM3-TRKA) [nM]
1 | CCc1nn(C)c2c1-c1cnc(N)c(c1)O[C@H](C)c1cc(F)ccc1-c1nn(C)nc1C2 [Example 98, (19R)-3-ethyl-16-fluoro-5,10,19-trimethyl-20-oxa-4,5,9,10,11,23-hexaazapentacyclo[19.3.1.0^2,^6.0^8,^12.0^13,^18]pentacosa-1(24),2(6),3,8,11,13,15,17,21(25),22-decaen-22-amine] | 0.1 to 50 | < 50 | 0.1 to 50 | 50 to 500 | < 50 | < 50 | 0.1 to 50 | 0.1 to 50 | < 50 | A (bin A for very high selectivity, ratio >30-fold) | A (bin A for very high selectivity, ratio >30-fold) | C (bin C for moderate selectivity, ratio ≥1) | A (bin A for very high selectivity, ratio >30-fold) | 50 to 500
2 | C[C@H]1Oc2cc(cnc2N)-c2c(cnn2C2COC2)Cc2nn(C)nc2-c2ccc(F)cc21 [Example 83, (19R)-16-fluoro-10,19-dimethyl-3-(oxetan-3-yl)-20-oxa-3,4,9,10,11,23-hexaazapentacyclo[19.3.1.0^2,^6.0^8,^12.0^13,^18]pentacosa-1(24),2(6),4,8,11,13,15,17,21(25),22-decaen-22-amine] | 0.1 to 50 | < 50 | 0.1 to 50 | > 500 | < 50 | < 50 | 50 to 500 | 0.1 to 50 | < 50 | A (bin A for very high selectivity, ratio >30-fold) | A (bin A for very high selectivity, ratio >30-fold) | C (bin C for moderate selectivity, ratio ≥1) | A (bin A for very high selectivity, ratio >30-fold) | 50 to 500
3 | C[C@H]1Oc2cc(cnc2N)-c2c(c(Cl)nn2CC2CC2)Cc2nn(C)nc2-c2ccc(F)cc21 [Example 85, (19R)-5-chloro-3-(cyclopropylmethyl)-16-fluoro-10,19-dimethyl-20-oxa-3,4,9,10,11,23-hexaazapentacyclo [19.3.1.0^2,^6.0^8,^12.0^13,^18]pentacosa-1(24),2(6),4,8,11,13,15,17,21(25),22-decaen-22-amine] | 0.1 to 50 | < 50 | 0.1 to 50 | > 500 | < 50 | < 50 | 0.1 to 50 | 0.1 to 50 | < 50 | A (bin A for very high selectivity, ratio >30-fold) | A (bin A for very high selectivity, ratio >30-fold) | A (bin A for very high selectivity, ratio >30-fold) | A (bin A for very high selectivity, ratio >30-fold) | > 500
4 | CCc1noc2c1-c1cnc(N)c(c1)O[C@H](C)c1cc(F)ccc1-c1nn(C)nc1C2 [Example 22, (19R)-3-ethyl-16-fluoro-10,19-dimethyl-5,20-dioxa-4,9,10,11,23-pentaazapentacyclo[19.3.1.0^2,^6.0^8,^12.0^13,^18]pentacosa-1(24),2(6),3,8,11,13,15,17,21(25),22-decaen-22-amine] | 0.1 to 50 | < 50 | 0.1 to 50 | 50 to 500 | < 50 | < 50 | 50 to 500 | 0.1 to 50 | < 50 | A (bin A for very high selectivity, ratio >30-fold) | A (bin A for very high selectivity, ratio >30-fold) | C (bin C for moderate selectivity, ratio ≥1) | B (bin B for high selectivity, ratio >10-fold) | 50 to 500
5 | CCn1ncc2c1-c1cnc(N)c(c1)O[C@H](C)c1cc(F)ccc1-c1nc(C)nn1C2 [Example 33, (19R)-3-ethyl-16-fluoro-10,19-dimethyl-20-oxa-hexaazapentacyclo[19.3.1.0^2,^6.0^8,^12.0^13,^18]pentacosa-1(24),2(6),4,9,11,13,15,17,21(25),22-decaen-22-amine] | 0.1 to 50 | < 50 | 0.1 to 50 | 50 to 500 | < 50 | < 50 | 50 to 500 | 0.1 to 50 | < 50 | A (bin A for very high selectivity, ratio >30-fold) | A (bin A for very high selectivity, ratio >30-fold) | C (bin C for moderate selectivity, ratio ≥1) | A (bin A for very high selectivity, ratio >30-fold) | 50 to 500
